This is an account of results in US20130326734A1, “COMPOSITIONS AND METHODS FOR CONTROLLING CARBON DIOXIDE- (CO2-) REGULATED STOMATAL APERTURES, WATER TRANSPIRATION AND WATER USE EFFICIENCY IN PLANTS” (THE REGENTS OF THE UNIVERSITY OF CALIFORNIA, priority 2011, published 2013).

Test [1] relates to intracellular pH of Arabidopsis guard cells. Kind of test: Fluorescence imaging of guard cells expressing the pH sensor Pt-GFP. Format: cell-based. As for the experimental part:
Fluorescence imaging was performed with a TE300 inverted microscope using a TE-FM Epi-Fluorescence attachment (Nikon) as previously described (Allen et al, 2000). Fluorescence images at excitation wavelengths of 470 nm and 440 nm were taken every 2 s using light from a 75-Watt xenon short arc lamp (Osram, Germany). […] neutral density filters were used to reduce bleaching of fluorescent reporter. Metafluor software (MDS, Inc.) was used to control filter wheels, shutter and COOLSNAP™ (CoolSNAP) CCD camera from Photomerics when recording and also processing raw data. The fluorescence ratio F470/F440 of Pt-GFP was analyzed as a detection of pH shifts (Schulte et al, 2006). […]
For recording intracellular Pt-GFP fluorescence in response to changes in extracellular pH incubation buffers, the pH of incubation buffers containing 10 mM MES, 10 mM KCl and 50 μM CaCl2 at 5.0 and 7.5 was adjusted by adding Tris-HCl. […] For recording intracellular Pt-GFP fluorescence in response to constant extracellular pH and added weak acid, the perfusion buffers contained 10 mM MES, 10 mM KCl and 50 μM CaCl2, pH 5.6 supplemented with the indicated concentrations of sodium butyrate. […] Background fluorescence intensities at 470 nm were measured in regions lacking guard cells and are also shown for the corresponding experiments.

Test [2] has as its system voltage-dependent anion channels (R-type anion channels) in Arabidopsis hypocotyl cells. The settings on record: Arabidopsis hypocotyl cells (Frachisse et al, 1999); cited from earlier work.
Test [3] relates to S-type anion channel currents in Arabidopsis guard cell protoplasts. In words: Whole-cell patch-clamp recording of S-type anion currents in guard cell protoplasts. In kind it is cell-based. The conditions noted are these: for current amplitude activated by bicarbonate at a voltage of −146 mV: 13.5 mM total bicarbonate; for HCO3− activated S-type anion current at a voltage of −146 mV: 11.5 mM [HCO3−]i and 2 mM [CO2]; for I (pA) at −146 mV: wild type Col-0 guard cells, pipette pH 7.1. As to the method: The interpulse period was 5 s. Liquid junction potentials (LJP) were determined using Clampex 10.0. No leak subtraction was applied for all current-voltage curves. Steady-state currents were the average currents during the last 500 ms of pulses. Detail contents of solutions are discussed, below (see “supplementary data”). Bicarbonate (CsHCO3) was freshly dissolved in the pipette solution before patch clamp experiments and pH was adjusted to the indicated values. The pipette solution was stored using air-tight precision glass syringes during patch clamp experiments to slow CO2 equilibration with the surrounding air and was not stored overnight. […] [HCO3^−] represents the free bicarbonate concentration; [CO2] represents the free CO2 concentration. […] To independently measure CO2 concentrations in the solutions at different pH values, an InPro 5000 CO2 sensor (Mettler Tolego 400, Mettler-Toledo Inc, USA) was used for dissolved CO2. The InPro 5000 sensor employs a gas permeable silicone membrane. The significance of differences between data sets was assessed by noncoupled double-tailed Student's t-test analysis. Values of P<0.05 were considered statistically significant.
For experiments analyzing effects of protons on S-type anion currents, the pipette solution contained 150 mM CsCl, 2 mM MgCl2, 6.7 mM EGTA, 0.6 mM CaCl2 (2 μM [Ca^2+]i), 5 mM Mg-ATP, 5 mM Tris-GTP, 1 mM Mes/Tris, pH 6.1. For experiments with pipette solution at pH 7.8, the pipette medium contained 150 mM CsCl, 2 mM MgCl2, 2 μM free [Ca^2+]i, 5 mM Mg-ATP, 5 mM Tris-GTP, 1 mM HEPES/Tris. Calcium affinities of EGTA and free Ca^2+ concentrations were calculated using the WEBMAXC tool (http://www.stanford.edu/-epatton/webmaxc/webmaxcE.htm), which considers pH, [ATP] and ionic conditions. The bath solution contained 30 mM CsCl, 2 mM MgCl2, 5 mM CaCl2 and 10 mM Mes/Tris, pH 5.6.
In general terms: The patch-clamp technique gives a direct electrical read-out from membranes.

Test [4] concerns Arabidopsis intact leaves. Kind of test: Stomatal conductance measurements of intact leaves in response to imposed [CO2] (Li-6400 gas exchange analyzer). In kind it is in vivo. As to the method:
Stomatal conductance measurements of 5-week-old plants in response to the imposed [CO2] at a light (PAR) fluence rate of 150 μmol m^−2s^−1 were conducted with a Li-6400 gas exchange analyzer with a fluorometer chamber (Li-Cor Inc.) as described-previously (Hu at al, 2010). To reduce the wilting of abi1-1 and abi1-2 mutant leaves, all plants ware analyzed with a humidifier that humidified the air surrounding plants to ˜75-85%. Relative stomatal conductance values of intact leaves were calculated by normalization relative to 365 or 400 ppm just before transition to 800 ppm [CO2]. Data shown are mean±s.e. of at least 3 leaves per genotype in the same experimental set.

Marks after values point to notes of the source that are not given here.

For the compound `CCCC(=O)[O-].[Na+]` [sodium butyrate], the “ratiometric fluorescence (F470/F440) of Pt-GFP, intracellular pH” value in test [1] (intact epidermes perfused with sodium butyrate-containing MES buffers, pH 5.6) is “clear shifts”.

As for `O=C(O)O` [bicarbonate], the “relative permeability ratio PHCO3−PCO−” value in test [2] is given as 0.8. Besides, the “current amplitude activated by bicarbonate at a voltage of −146 mV” value in test [3] (Col-0 wild type guard cells, 2 μM [Ca2+]i, n=10) is reported as −59±5.9 pA; in test [3] (ost1-3 mutant guard cells, 2 μM [Ca2+]i, n=6), −24±1.9 pA. Besides, the “whole-cell current at a voltage of −144 mV” value in test [3] (Col-0 wild type, extracellular bath perfusion with 13.5 mM total bicarbonate (11.5 mM free HCO3−, 2 mM CO2) pH 7.1, n=6) is given as −17±5 pA. Further, the “HCO3− activated S-type anion current at a voltage of −146 mV” value was −51±4.3 pA in test [3] (Ler wild type guard cells, 2 μM [Ca2+]i, n=7) and −25.2±1.9 pA in test [3] (ost1-2 mutant guard cells, 2 μM [Ca2+]i, n=6). The “activation of anion currents” value in test [3] (ca1;ca4 double mutant guard cells, 13.5 mM total bicarbonate (11.5 mM free [HCO3−]i/2 mM free [CO2]) pH 7.1, 2 μM [Ca2+]i) was “activated anion currents”. The “activation of S-type anion currents” value in test [3] (ht1-2 guard cells, 5.75 mM free [HCO3−]i and 1 mM free [CO2] pH 7.1, 2 μM [Ca2+]i, P<0.01) was “significant activation”; in test [3] (ht1-2 guard cells, 5.75 mM free [HCO3−]i, [Ca2+]i buffered to 0.15 μM), “no significant S-type anion current activation”; in test [3] (wild type, 13.04 mM free [HCO3−] with 0.46 mM free [CO2] at pH 7.8, 2 μM [Ca2+]i, P<0.05) it was “S-type anion currents were activated”. For the same compound, the “reversal potential of CO2+HCO3− activated whole-cell currents” value in test [3] (imposed chloride equilibrium potential +31.1 mV, n=8) is listed as “+24.0±3.6 mV”. Moreover, the “anion currents in the presence of bicarbonate” value in test [3] (slac1-1 mutant guard cell protoplasts, 11.5 mM free [HCO3−]i and 2 mM [CO2], similar to control, P>0.05) is “only small anion currents”. The “I (pA) at −146 mV” value in test [3] ([Ca^2+]i 0.15 μM, free [HCO3]i 11.5 mM) was −22.3 ± 2.3^c pA; in test [3] ([Ca^2+]i 0.6 μM, free [HCO3]i 11.5 mM), −27.3 ± 4.5^f pA; in test [3] ([Ca^2+]i 2 μM, free [HCO3]i 5.75 mM), −21.8 ± 3.2^d pA; in test [3] ([Ca^2+]i 2 μM, free [HCO3]i 11.5 mM), −58.7 ± 5.9^e pA. Moreover, the “reversal potential of whole-cell S-type anion currents” value in test [3] (wild type, 50 mM total bicarbonate in pipette pH 7.1 (43.4 mM free [HCO3−]i, 6.6 mM free [CO2]), n=4) is reported as “+26.0±0.9 mV”. Moreover, in test [3] (wild type, 50 mM total bicarbonate, estimated using the Goldman equation), the “relative permeability ratio of PHCO3−/PCi−” value is reported as 0.06±0.01. In addition, the “activation of S-type anion currents by extracellular application” value in test [3] (wild type, bath perfused 2 min with 11.5 mM free [HCO3−] and 2 mM [CO2] at pH 7.1) is “No large S-type anion currents were activated”.

On to `O=C=O` [CO2, carbon dioxide], for which the “guard cell intracellular pH fluorescence (Pt-GFP)” value in test [1] (CO2 bubbled in extracellular perfusion buffers repeatedly shifted from 0 ppm to 800 ppm) was “no clear shifts”. Further, the initial rate of stomatal conductance change in test [4] (abi1-1 mutant plants, [CO2] shifted from 400 to 800 ppm for 30 min, ~75-85% humidity) is -0.035 ± 0.007 mmol H2O m^-2 s^-1 min^-1; in test [4] (abi2-1 mutant plants, [CO2] shifted from 400 to 800 ppm for 30 min, ~75-85% humidity), -0.037 ± 0.007 mmol H2O m^-2 s^-1 min^-1; in test [4] (pyr1;pyl1;pyl2;pyl4 mutant plants, [CO2] shifted from 365 to 800 ppm for 30 min), −0.035±0.008 mmol H2O m^−2 s^−1 min^−1; in test [4] (pyr1;pyl1;pyl2;pyl4 mutant plants, first 30 min upon shifting [CO2] from 800 to 100 ppm), 0.022±0.002 mmol H2O m^−2 s^−1 min^−1; in test [4] (wild type plants, [CO2] shifted from 365 to 800 ppm for 30 min), −0.038±0.014 mmol H2O m^−2 s^−1 min^−1; in test [4] (wild type plants, [CO2] shifted from 400 to 800 ppm for 30 min, ~75-85% humidity), −0.041±0.01 mmol H2O m^−2 s^−1 min^−1. Further, in test [4] (wild type plants, first 30 min upon shifting [CO2] from 800 to 100 ppm), the “initial rate of stomatal conductance change” value is listed as 0.042±0.013 mmol H2O m^−2 s^−1 min^−1. Moreover, the “activation of S-type anion channel currents” value in test [3] (wild type, 2 mM intracellular free [CO2] (1.1 mM free [HCO3−]i) at pH 6.1, P>0.05) was “not activated”.
